# The supplement of paper PMC10307832
# Columns and labels:
# Assay in all cases: relative viability (nuclei count vs DMSO), 5 days (fraction); higher = more cells survive
# [1] = tested on: NCI-H1993
# Outline: (§1)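 Dosing by pin tool came one day after lung cancer cell lines were seeded in 1536-well plates, using either one drug or a fixed anchor-drug dose plus five library-drug doses (not always all listed) in √10 steps. After 5 days, nuclei were counted on 4× images. Relative viability is treated-well nuclei count divided by vehicle-well nuclei count, and values are medians of duplicate plates.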
# [2] = tested on: PC-3 [JPC-3]
# Outline: as §1
# [3] = tested on: NCI-H1975
# Outline: as §1
# [4] = tested on: HCC-15
# Outline: as §1
# [5] = tested on: LU99A
# Outline: as §1
# [6] = tested on: NCI-H838
# Outline: as §1
# [7] = tested on: LC-2-ad
# Outline: as §1
# [8] = tested on: HARA
# Outline: as §1
# [9] = tested on: NCI-H1734
# Outline: as §1
# [10] = tested on: NCI-H1944
# Outline: as §1
# [11] = tested on: HCC-366
# Outline: as §1
# [12] = tested on: NCI-H1666
# Outline: as §1
# [13] = tested on: NCI-H2228
# Outline: as §1
# [14] = tested on: NCI-H1395
# Outline: as §1
# [15] = tested on: NCI-H3122
# Outline: as §1
# [16] = tested on: NCI-H661
# Outline: as §1
# [17] = tested on: CAL-12T
# Outline: as §1
# [18] = tested on: H3255
# Outline: as §1
# [19] = tested on: NCI-H520
# Outline: as §1
# [20] = tested on: COR-L 105
# Outline: as §1
# [21] = tested on: PC-14
# Outline: as §1
# [22] = tested on: NCI-H647
# Outline: as §1
# [23] = tested on: SK-LU-1
# Outline: as §1
compound,measurement,setting,value
O=C(O)CCCCC(CCSCc1ccccc1)SCc1ccccc1 (stereo not given) [CPI-613] + C[C@]1(O)C[C@@H](c2nc(-c3ccc4ccc(-c5ccccc5)nc4c3)c3c(N)nccn32)C1 [Linsitinib] (partner 1 µM),relative viability,[1]; first compound 5 µM,0.71
same,relative viability,[1]; first compound 15.81 µM,0.671
same,relative viability,[1]; first compound 50 µM,0.781
same,relative viability,[1]; first compound 158.11 µM,0.61
same,relative viability,[1]; first compound 500 µM,0.432
same,relative viability,[2]; first compound 5 µM,0.953
same,relative viability,[2]; first compound 15.81 µM,0.854
same,relative viability,[2]; first compound 50 µM,0.883
same,relative viability,[2]; first compound 158.11 µM,0.588
same,relative viability,[2]; first compound 500 µM,0.64
same,relative viability,[3]; first compound 5 µM,0.938
same,relative viability,[3]; first compound 15.81 µM,1.03
same,relative viability,[3]; first compound 50 µM,1.13
same,relative viability,[3]; first compound 158.11 µM,0.541
same,relative viability,[3]; first compound 500 µM,0.0601
same,relative viability,[4]; first compound 5 µM,0.878
same,relative viability,[4]; first compound 15.81 µM,0.845
same,relative viability,[4]; first compound 50 µM,0.794
same,relative viability,[4]; first compound 158.11 µM,0.467
same,relative viability,[4]; first compound 500 µM,0.359
same,relative viability,[5]; first compound 5 µM,0.519
same,relative viability,[5]; first compound 15.81 µM,0.461
same,relative viability,[5]; first compound 50 µM,0.561
same,relative viability,[5]; first compound 158.11 µM,0.273
same,relative viability,[5]; first compound 500 µM,0.0476
same,relative viability,[6]; first compound 5 µM,1.04
same,relative viability,[6]; first compound 15.81 µM,0.956
same,relative viability,[6]; first compound 50 µM,0.905
same,relative viability,[6]; first compound 158.11 µM,0.544
same,relative viability,[6]; first compound 500 µM,0.0935
same,relative viability,[7]; first compound 5 µM,0.805
same,relative viability,[7]; first compound 15.81 µM,0.847
same,relative viability,[7]; first compound 50 µM,0.738
same,relative viability,[7]; first compound 158.11 µM,0.251
same,relative viability,[7]; first compound 500 µM,0.0081
same,relative viability,[8]; first compound 5 µM,0.906
same,relative viability,[8]; first compound 15.81 µM,0.864
same,relative viability,[8]; first compound 50 µM,0.991
same,relative viability,[8]; first compound 158.11 µM,0.44
same,relative viability,[8]; first compound 500 µM,0.0277
same,relative viability,[9]; first compound 5 µM,0.93
same,relative viability,[9]; first compound 15.81 µM,0.821
same,relative viability,[9]; first compound 50 µM,0.83
same,relative viability,[9]; first compound 158.11 µM,0.69
same,relative viability,[9]; first compound 500 µM,0.117
same,relative viability,[10]; first compound 5 µM,1.31
same,relative viability,[10]; first compound 15.81 µM,1.15
same,relative viability,[10]; first compound 50 µM,1.14
same,relative viability,[10]; first compound 158.11 µM,0.968
same,relative viability,[10]; first compound 500 µM,0.787
same,relative viability,[11]; first compound 5 µM,0.601
same,relative viability,[11]; first compound 15.81 µM,0.637
same,relative viability,[11]; first compound 50 µM,0.597
same,relative viability,[11]; first compound 158.11 µM,0.587
same,relative viability,[11]; first compound 500 µM,0.0054
same,relative viability,[12]; first compound 5 µM,0.783
same,relative viability,[12]; first compound 15.81 µM,0.907
same,relative viability,[12]; first compound 50 µM,0.789
same,relative viability,[12]; first compound 158.11 µM,0.172
same,relative viability,[12]; first compound 500 µM,0.167
same,relative viability,[13]; first compound 5 µM,0.735
same,relative viability,[13]; first compound 15.81 µM,0.453
same,relative viability,[13]; first compound 50 µM,0.402
same,relative viability,[13]; first compound 158.11 µM,0.221
same,relative viability,[13]; first compound 500 µM,0.0094
same,relative viability,[14]; first compound 5 µM,1.09
same,relative viability,[14]; first compound 15.81 µM,0.961
same,relative viability,[14]; first compound 50 µM,1.08
same,relative viability,[14]; first compound 158.11 µM,1.1
same,relative viability,[14]; first compound 500 µM,1.04
same,relative viability,[15]; first compound 5 µM,0.985
same,relative viability,[15]; first compound 15.81 µM,1.02
same,relative viability,[15]; first compound 50 µM,0.988
same,relative viability,[15]; first compound 158.11 µM,0.644
same,relative viability,[15]; first compound 500 µM,0.0543
same,relative viability,[16]; first compound 5 µM,0.49
same,relative viability,[16]; first compound 15.81 µM,0.458
same,relative viability,[16]; first compound 50 µM,0.668
same,relative viability,[16]; first compound 158.11 µM,0.503
same,relative viability,[16]; first compound 500 µM,0.511
same,relative viability,[17]; first compound 5 µM,0.865
same,relative viability,[17]; first compound 15.81 µM,0.634
same,relative viability,[17]; first compound 50 µM,0.561
same,relative viability,[17]; first compound 158.11 µM,0.642
same,relative viability,[17]; first compound 500 µM,0.62
same,relative viability,[18]; first compound 5 µM,0.915
same,relative viability,[18]; first compound 15.81 µM,0.989
same,relative viability,[18]; first compound 50 µM,0.969
same,relative viability,[18]; first compound 158.11 µM,0.948
same,relative viability,[18]; first compound 500 µM,0.921
same,relative viability,[19]; first compound 5 µM,0.842
same,relative viability,[19]; first compound 15.81 µM,1.09
same,relative viability,[19]; first compound 50 µM,1.03
same,relative viability,[19]; first compound 158.11 µM,0.412
same,relative viability,[19]; first compound 500 µM,0.12
same,relative viability,[20]; first compound 5 µM,1.15
same,relative viability,[20]; first compound 15.81 µM,0.77
same,relative viability,[20]; first compound 50 µM,0.902
same,relative viability,[20]; first compound 158.11 µM,0.664
same,relative viability,[20]; first compound 500 µM,0.181
same,relative viability,[21]; first compound 5 µM,0.941
same,relative viability,[21]; first compound 15.81 µM,0.874
same,relative viability,[21]; first compound 50 µM,0.928
same,relative viability,[21]; first compound 158.11 µM,0.857
same,relative viability,[21]; first compound 500 µM,1.02
same,relative viability,[22]; first compound 5 µM,1.16
same,relative viability,[22]; first compound 15.81 µM,1.13
same,relative viability,[22]; first compound 50 µM,0.951
same,relative viability,[22]; first compound 158.11 µM,0.107
same,relative viability,[22]; first compound 500 µM,0.0169
same,relative viability,[23]; first compound 5 µM,1.04
same,relative viability,[23]; first compound 15.81 µM,0.93
same,relative viability,[23]; first compound 50 µM,0.893
same,relative viability,[23]; first compound 158.11 µM,0.177
same,relative viability,[23]; first compound 500 µM,0.122
